# Data published in paper PMC13128454, “Mutant p53 protein accumulation is selectively targetable by proximity-inducing drugs” (Nature Chemical Biology, 2025).
# Values joined by “and” are separate entries in the source; they are usually repeats but may differ in a detail not shown here. Identical values can stand only once. Like-named read-outs stand apart in the source and are kept apart here.
# Assays:
# Type in all cases: cell-based
# [1] = tested on: Halo–p53-Y220C ΔTAD–mCherry 293T cells; assay: annexin–PI staining; conditions: for P3_avg (P3 = early apoptotic) / P5_avg (P5 = late apoptotic): Cell_Line Y220C, proportion of cells; for avgprop_P3 / avgprop_P4 / avgprop_P5 / avgprop_P2 / P2_viable / P3_AnnexinPos_PIneg / P4_PIpos_AnnexinNeg / P5_PIpos_Annexinpos / prop_P3 / prop_P4 / prop_P5 / prop_P2: Y220C; for avgprop_P3: average proportion AnnexinPos PIneg; for avgprop_P4: average proportion PIpos AnnexinNeg; for avgprop_P5: average proportion PIpos Annexinpos; for avgprop_P2: average proportion viable; for P2_viable / P3_AnnexinPos_PIneg / P4_PIpos_AnnexinNeg / P5_PIpos_Annexinpos: event count; for P2_viable / P3_AnnexinPos_PIneg / P4_PIpos_AnnexinNeg / P5_PIpos_Annexinpos / prop_P3 / prop_P4 / prop_P5 / prop_P2: single replicate; for prop_P3: proportion AnnexinPos PIneg; for prop_P4: proportion PIpos AnnexinNeg; for prop_P5: proportion PIpos Annexinpos; for prop_P2: proportion viable
# Protocol: Cells were plated in six-well plates and treated with varying concentrations of compounds for 1 day. Cells were stained with annexin V–AF488 and PI following the manufacturer’s instructions (Thermo Fisher, V13241) and analyzed by flow cytometry (Beckman CytoFLEX LX), using untreated cells to establish gates.
# parental 293T cells = assay: cell-cycle analysis (DNA content, DAPI flow cytometry); conditions: WT, 1 day
# Protocol: (§1) Cells were split into a 10-cm dish at low confluency (20%) and grown overnight. Cells were synchronized using overnight treatment with palbociclib (150 nM), washed and split into a six-well plate for treatment with compound for 24 h. Cells were harvested by trypsinization, washed twice with cold 1× PBS, fixed by dropwise addition of ice-cold 70% ethanol while vortexing and incubated overnight (4 °C). Fixed samples were centrifuged at 1,000g for 5 min and 70% ethanol was removed. Cells were washed twice with 1× PBS + 1% BSA before DNA labeling with 1 µg ml^−1 DAPI for 10 min at room temperature, before being analyzed for DNA content by flow cytometry (Beckman CytoFLEX LX).
# [2] = tested on: p53 luciferase transcriptional reporter in Huh7 cells; assay: p53 luciferase reporter assay; conditions: for p53 luciferase reporter signal (normalized), replicates: Huh7
# Protocol: (§2) Huh7 and MFE319 cell lines stably expressing a p53 reporter (Addgene, 90363)[59] were generated. Cells were plated in 384-well plates (1,500 cells per well) and treated with varying concentrations of compound. Then, 16 h after treatment, firefly luciferase substrate was added to the cells and luminescence was monitored using an EnVision 2105 multimode plate reader.
# [3] = tested on: p53 luciferase transcriptional reporter in MFE319 cells; assay: p53 luciferase reporter assay; conditions: for p53 luciferase reporter signal (normalized), replicates: MFE319
# Protocol: as §2
# [4] = tested on: 293T cells expressing a dox inducible Halo–p53-Y220C ΔTAD–mCherry; assay: viability with doxycycline-inducible construct
# Protocol: (§3) Cells were plated in 384-well plates (typically 1,500 cells per well) with varying concentrations of compounds, with a total volume of 50 μl per well. CTG reagent was added (25 μl) to the solutions, mixed and read out using an EnVision 2105 multimode plate reader.
# [5] = viability with doxycycline-inducible construct; conditions: human, read-out: mean_norm (normalized viability)
# Protocol: as §3
# [6] = tested on: Halo–p53-Y220C ΔTAD–mCherry 293T cells; assay: cell-cycle analysis (DNA content, DAPI flow cytometry); design: 4N / 8N / Right_of_Gate1 (replicates) / Right_of_Gate2 (replicates) / 2N: unit not given here; conditions: Y220C, 1 day
# Protocol: as §1
# [7] = Conc 0.38 (unit not given; p53-01 in μM, BI2536 in nM)
# [8] = Conc 0.75 (unit not given; p53-01 in μM, BI2536 in nM)
# [9] = Conc 1.50 (unit not given; p53-01 in μM, BI2536 in nM)
# [10] = Conc 10.00 (unit not given; per b27 BI2536 in nM)
compound,measurement,setting,value
CC[C@@H]1C(=O)N(C)c2cnc(Nc3ccc(C(=O)NC4CCN(C)CC4)cc3OC)nc2N1C1CCCC1 [BI2536],P3_avg (P3 = early apoptotic),[1]; Concentration 0.75,0.03538
same,P5_avg (P5 = late apoptotic),[1]; Concentration 0.75,0.001761
same,P3_avg (P3 = early apoptotic),[1]; Concentration 1.5,0.08725
same,P5_avg (P5 = late apoptotic),[1]; Concentration 1.5,0.03439
same,avgprop_P3,[1]; Concentration 0.75,0.03538
same,avgprop_P4,[1]; Concentration 0.75,0.005431
same,avgprop_P5,[1]; Concentration 0.75,0.001761
same,avgprop_P2,[1]; Concentration 0.75,0.9574
same,P2_viable,[1]; Concentration 0.75,2186 and 2152 and 2185
same,P3_AnnexinPos_PIneg,[1]; Concentration 0.75,74 and 98 and 69
same,P4_PIpos_AnnexinNeg,[1]; Concentration 0.75,7 and 17 and 13
same,P5_PIpos_Annexinpos,[1]; Concentration 0.75,5 and 3 and 4
same,prop_P3,[1]; Concentration 0.75,0.03257 and 0.04317 and 0.03038
same,prop_P4,[1]; Concentration 0.75,0.003081 and 0.007489 and 0.005724
same,prop_P5,[1]; Concentration 0.75,0.002201 and 0.001322 and 0.001761
same,prop_P2,[1]; Concentration 0.75,0.9621 (2×) and 0.948
same,avgprop_P3,[1]; Concentration 1.5,0.08725
same,avgprop_P4,[1]; Concentration 1.5,0.1027
same,avgprop_P5,[1]; Concentration 1.5,0.03439
same,avgprop_P2,[1]; Concentration 1.5,0.7757
same,P2_viable,[1]; Concentration 1.5,1282 and 1336 and 510
same,P3_AnnexinPos_PIneg,[1]; Concentration 1.5,163 and 159 and 47
same,P4_PIpos_AnnexinNeg,[1]; Concentration 1.5,201 and 160 and 62
same,P5_PIpos_Annexinpos,[1]; Concentration 1.5,59 and 56 and 23
same,prop_P3,[1]; Concentration 1.5,0.0956 and 0.09293 and 0.07321
same,prop_P4,[1]; Concentration 1.5,0.1179 and 0.09351 and 0.09657
same,prop_P5,[1]; Concentration 1.5,0.0346 and 0.03273 and 0.03583
same,prop_P2,[1]; Concentration 1.5,0.7519 and 0.7808 and 0.7944
same,2N,parental 293T cells; [7],60.20
same,4N,parental 293T cells; [7],37.88
same,Right_of_Gate1 (replicates),parental 293T cells; [7],39.80 and 40.72 and 40.28
same,Right_of_Gate2 (replicates),parental 293T cells; [7],1.92 and 1.75 and 1.63
same,2N,parental 293T cells; [8],60.97
same,4N,parental 293T cells; [8],37.16
same,Right_of_Gate1 (replicates),parental 293T cells; [8],39.03 and 39.73 and 39.74
same,Right_of_Gate2 (replicates),parental 293T cells; [8],1.87 and 1.62 and 1.66
same,2N,parental 293T cells; [9],59.07
same,4N,parental 293T cells; [9],38.46
same,Right_of_Gate1 (replicates),parental 293T cells; [9],40.93 and 41.63 and 42.56
same,Right_of_Gate2 (replicates),parental 293T cells; [9],2.47 and 2.39 and 2.53
same,2N,parental 293T cells; [10],2.57
same,4N,parental 293T cells; [10],4.74
same,Right_of_Gate1 (replicates),parental 293T cells; [10],97.43 and 97.32 and 97.36
same,Right_of_Gate2 (replicates),parental 293T cells; [10],92.69 and 91.65 and 92.21
same,induction of p53 reporter,"[2]; 16 h, PMV6 at doses of 1.25–10 μM",no such effect
same,"p53 luciferase reporter signal (normalized), replicates",[2]; log Concentration (pM) 1.68867,1.071 and 1.082 and 0.9754
same,"p53 luciferase reporter signal (normalized), replicates",[2]; log Concentration (pM) 1.9897,0.9944 and 0.9877 and 0.9088
same,"p53 luciferase reporter signal (normalized), replicates",[2]; log Concentration (pM) 2.29073,0.9631 and 0.9698 and 0.9782
same,"p53 luciferase reporter signal (normalized), replicates",[2]; log Concentration (pM) 2.59176,1.0179 and 0.8887 and 0.8977
same,"p53 luciferase reporter signal (normalized), replicates",[2]; log Concentration (pM) 2.89279,1.088 and 0.9771 and 0.9776
same,"p53 luciferase reporter signal (normalized), replicates",[2]; log Concentration (pM) 3.19382,1.04 and 1.0179 and 1.023
same,"p53 luciferase reporter signal (normalized), replicates",[2]; log Concentration (pM) 3.49485,0.8529 and 0.9603 and 1.044
same,"p53 luciferase reporter signal (normalized), replicates",[2]; log Concentration (pM) 3.79588,0.8775 and 0.9273 and 0.8786
same,"p53 luciferase reporter signal (normalized), replicates",[2]; log Concentration (pM) 4.09691,0.9161 and 0.9032 and 0.92
same,"p53 luciferase reporter signal (normalized), replicates",[2]; log Concentration (pM) 4.39794,0.8747 and 0.91 and 0.9648
same,"p53 luciferase reporter signal (normalized), replicates",[2]; log Concentration (pM) 4.69897,0.9245 and 0.9167 and 0.9228
same,"p53 luciferase reporter signal (normalized), replicates",[2]; log Concentration (pM) 5,0.7964 and 0.863 and 0.8635
same,induction of p53 reporter,[3]; 16 h,no induction of luciferase activity
same,"p53 luciferase reporter signal (normalized), replicates",[3]; log Concentration (pM) 1.68867,0.8432 and 0.8795 and 0.997
same,"p53 luciferase reporter signal (normalized), replicates",[3]; log Concentration (pM) 1.9897,1.008 and 0.9306 and 1.09
same,"p53 luciferase reporter signal (normalized), replicates",[3]; log Concentration (pM) 2.29073,0.7831 and 0.9939 and 0.826
same,"p53 luciferase reporter signal (normalized), replicates",[3]; log Concentration (pM) 2.59176,1.029 and 1.032 and 0.9459
same,"p53 luciferase reporter signal (normalized), replicates",[3]; log Concentration (pM) 2.89279,0.8553 and 0.942 and 1.018
same,"p53 luciferase reporter signal (normalized), replicates",[3]; log Concentration (pM) 3.19382,0.956 and 0.9365 and 0.9572
same,"p53 luciferase reporter signal (normalized), replicates",[3]; log Concentration (pM) 3.49485,0.8748 and 0.9709 and 0.8007
same,"p53 luciferase reporter signal (normalized), replicates",[3]; log Concentration (pM) 3.79588,0.8943 and 0.9669 and 0.8623
same,"p53 luciferase reporter signal (normalized), replicates",[3]; log Concentration (pM) 4.09691,0.6004 and 0.8065 and 0.6757
same,"p53 luciferase reporter signal (normalized), replicates",[3]; log Concentration (pM) 4.39794,0.6617 and 0.6465 and 0.5696
same,"p53 luciferase reporter signal (normalized), replicates",[3]; log Concentration (pM) 4.69897,0.5274 and 0.6902 and 0.6941
same,"p53 luciferase reporter signal (normalized), replicates",[3]; log Concentration (pM) 5,0.7269 and 0.634 and 0.6632
same,change of potency upon doxycycline induction,"[4]; dox 0, 100, 1000 ng/mL, 4 days",without impacting the potency
same,mean_norm (normalized viability),"[4]; dox 0, Concentration 0.0390625",0.9266
same,mean_norm (normalized viability),"[4]; dox 0, Concentration 0.078125",0.8991
same,mean_norm (normalized viability),"[4]; dox 0, Concentration 0.15625",0.8734
same,mean_norm (normalized viability),"[4]; dox 0, Concentration 0.3125",0.835
same,mean_norm (normalized viability),"[4]; dox 0, Concentration 0.625",0.7837
same,mean_norm (normalized viability),"[4]; dox 0, Concentration 1.25",0.5152
same,mean_norm (normalized viability),"[4]; dox 0, Concentration 2.5",0.218
same,mean_norm (normalized viability),"[4]; dox 0, Concentration 5",0.1689
same,mean_norm (normalized viability),"[4]; dox 0, Concentration 10",0.1644
same,mean_norm (normalized viability),"[4]; dox 100, Concentration 0.3125",0.8537
same,mean_norm (normalized viability),"[4]; dox 100, Concentration 0.625",0.6735
same,mean_norm (normalized viability),"[4]; dox 100, Concentration 1.25",0.3823
same,mean_norm (normalized viability),"[4]; dox 100, Concentration 2.5",0.2022
same,mean_norm (normalized viability),"[4]; dox 100, Concentration 5",0.161
same,mean_norm (normalized viability),"[4]; dox 100, Concentration 10",0.1435
same,viability,"[5]; dox 100, Concentration 0.0390625",99%
same,viability,"[5]; dox 100, Concentration 0.078125",86.5%
same,viability,"[5]; dox 100, Concentration 0.15625",88.6%
same,viability,"[5]; dox 1000, Concentration 0.0390625",97.3%
same,viability,"[5]; dox 1000, Concentration 0.078125",89.3%
same,viability,"[5]; dox 1000, Concentration 0.15625",88.7%
same,viability,"[5]; dox 1000, Concentration 0.3125",83%
same,viability,"[5]; dox 1000, Concentration 0.625",74.2%
same,viability,"[5]; dox 1000, Concentration 1.25",48.7%
same,viability,"[5]; dox 1000, Concentration 2.5",18.6%
same,viability,"[5]; dox 1000, Concentration 5",14.5%
same,viability,"[5]; dox 1000, Concentration 10",10.7%
same,2N,[6]; [7],59.64
same,4N,[6]; [7],39.45
same,8N,[6]; [7],0.91
same,Right_of_Gate1 (replicates),[6]; [7],40.36 and 39.92 and 40.00
same,Right_of_Gate2 (replicates),[6]; [7],0.91 and 0.89 and 1.00
same,2N,[6]; [8],59.25
same,4N,[6]; [8],40.16
same,8N,[6]; [8],0.59
same,Right_of_Gate1 (replicates),[6]; [8],40.75 and 40.54 and 40.62
same,Right_of_Gate2 (replicates),[6]; [8],0.59 and 0.51 and 0.57
same,2N,[6]; [9],58.82
same,4N,[6]; [9],40.66
same,8N,[6]; [9],0.52
same,Right_of_Gate1 (replicates),[6]; [9],41.18 and 41.58 and 39.89
same,Right_of_Gate2 (replicates),[6]; [9],0.52 (2×) and 0.50
same,2N,[6]; [10],2.81
same,4N,[6]; [10],3.65
same,8N,[6]; [10],93.54
same,Right_of_Gate1 (replicates),[6]; [10],97.19 and 96.75 and 95.65
same,Right_of_Gate2 (replicates),[6]; [10],93.54 and 93.93 and 86.65
